According to ChEMBL document CHEMBL1136564, “Sordaricin antifungal agents” (2003):
In brackets after ≈: the same amount, converted by molar mass. Activity calls are given as the source filed them. The rule behind the calls is not given here.

Tests used:
Nakaseomyces glabratus = assay: Minimum inhibitory concentration required to inhibit 90 to 100% visible growth of Candida glabrata; format: functional
Candida albicans = assay: Minimum inhibitory concentration to inhibit 90 to 100% visible growth of Candida albicans; format: functional
HEp-2 [1] = assay: In vitro cytotoxic concentration against Hep2 cells.; format: functional; details: Homo sapiens
[2] = In vitro therapeutic index (calculated as CC50/MIC (Candida albicans)).; format: functional
HEp-2 [3] = assay: Cytotoxic concentration against Hep2 cells; activation observed, but IC50 could not be determined; format: functional, cell-based; details: Homo sapiens

With `CC(C)CCC(=O)C12C[C@@H]3[C@H](C)CC[C@H]3C3(C=O)CC1C=C(C(C)C)[C@@]23C(=O)O` the MIC (Nakaseomyces glabratus) was 1 µg/mL (≈ 2.5 µM), the MIC (Candida albicans) was greater than 128 µg/mL and the CC50 (HEp-2 [1]) was 2.5 µg/mL (≈ 6.24 µM). The Therapeutic index [2] was less than 0.02.
Compound `CC(C)CCCCC(O)C12C[C@@H]3[C@H](C)CC[C@H]3C3(C=O)CC1C=C(C(C)C)[C@@]23C(=O)O` (stereo partly drawn) has an MIC (Nakaseomyces glabratus) of 32 µg/mL (≈ 74.3 µM), an MIC (Candida albicans) of 1 µg/mL (≈ 2.32 µM) and a CC50 (HEp-2 [1]) of 1.2 µg/mL (≈ 2.79 µM). It also gave a Therapeutic index [2] of 1.2.
Compound `CC(C)CCCC#CC(=O)C12C[C@@H]3[C@H](C)CC[C@H]3C3(C=O)CC1C=C(C(C)C)[C@@]23C(=O)O` has an MIC (Nakaseomyces glabratus) of 0.25 µg/mL (≈ 0.57 µM), an MIC (Candida albicans) of less than 0.06 µg/mL and a CC50 (HEp-2 [1]) of 1.4 µg/mL (≈ 3.19 µM). The Therapeutic index [2] was greater than 23.3.
`CCCCC#CC(=O)C12C[C@@H]3[C@H](C)CC[C@H]3C3(C=O)CC1C=C(C(C)C)[C@@]23C(=O)O` gave an MIC (Nakaseomyces glabratus) of 0.5 µg/mL (≈ 1.22 µM), an MIC (Candida albicans) of less than 0.06 µg/mL and a CC50 (HEp-2 [1]) of 3.3 µg/mL (≈ 8.04 µM). For the same compound, the Therapeutic index [2] was greater than 55.
Compound `CC(C)C1=CC2CC3(C=O)[C@@H]4CC[C@@H](C)[C@H]4CC2(C(=O)CCC2CCCCC2)[C@]13C(=O)O` has an MIC (Nakaseomyces glabratus) greater than 128 µg/mL, an MIC (Candida albicans) of 0.5 µg/mL (≈ 1.13 µM) and a CC50 (HEp-2 [1]) of 1.8 µg/mL (≈ 4.09 µM). For the same compound, the Therapeutic index [2] was 3.6.
In the case of `CCCCCCC(O)C12C[C@@H]3[C@H](C)CC[C@H]3C3(C=O)CC1C=C(C(C)C)[C@@]23C(=O)O` (stereo partly drawn), the MIC (Nakaseomyces glabratus) is reported as 32 µg/mL (≈ 76.8 µM), the MIC (Candida albicans) is reported as 4 µg/mL (≈ 9.6 µM) and the CC50 (HEp-2 [1]) is reported as 2.4 µg/mL (≈ 5.76 µM). It also gave a Therapeutic index [2] of 0.6.
In the case of `CC(C)CCCCC(=O)C12C[C@@H]3[C@H](C)CC[C@H]3C3(C=O)CC1C=C(C(C)C)[C@@]23C(=O)O`, the MIC (Nakaseomyces glabratus) is reported as greater than 128 µg/mL, the MIC (Candida albicans) is reported as 0.5 µg/mL (≈ 1.17 µM) and the CC50 (HEp-2 [1]) is reported as 2.5 µg/mL (≈ 5.83 µM). The Therapeutic index [2] was 5.
Compound `CC(C)C1=CC2CC3(C=O)[C@@H]4CC[C@@H](C)[C@H]4CC2(C(O)CCC2CCCCC2)[C@]13C(=O)O` (stereo partly drawn) has an MIC (Nakaseomyces glabratus) of 16 µg/mL (≈ 36.1 µM), an MIC (Candida albicans) of 0.5 µg/mL (≈ 1.13 µM) and a CC50 (HEp-2 [1]) of 1.5 µg/mL (≈ 3.39 µM). For the same compound, the Therapeutic index [2] was 3.
`CC(C)C1=CC2CC3(C=O)[C@@H]4CC[C@@H](C)[C@H]4CC2(C(O)C#CCC2CCCCC2)[C@]13C(=O)O` (stereo partly drawn) gave an MIC (Nakaseomyces glabratus) of 4 µg/mL (≈ 8.84 µM), an MIC (Candida albicans) of 0.25 µg/mL (≈ 0.552 µM) and a CC50 (HEp-2 [1]) of 10.7 µg/mL (≈ 23.6 µM). The Therapeutic index [2] was 42.8.
For `CCCCC#CC(O)C12C[C@@H]3[C@H](C)CC[C@H]3C3(C=O)CC1C=C(C(C)C)[C@@]23C(=O)O` (stereo partly drawn), the MIC (Nakaseomyces glabratus) was 32 µg/mL (≈ 77.6 µM), the MIC (Candida albicans) was 8 µg/mL (≈ 19.4 µM) and the CC50 (HEp-2 [1]) was 18.3 µg/mL (≈ 44.4 µM). For the same compound, the Therapeutic index [2] was 2.3.
In the case of `CC(C)C1=CC2CC3(C=O)[C@@H]4CC[C@@H](C)[C@H]4CC2(C(=O)C#Cc2ccccc2)[C@]13C(=O)O`, the MIC (Nakaseomyces glabratus) is reported as 16 µg/mL (≈ 37.2 µM), the MIC (Candida albicans) is reported as greater than 128 µg/mL and the CC50 (HEp-2 [1]) is reported as greater than 12 µg/mL. For the same compound, the Therapeutic index [2] was 0.09.
With `CC(C)CCC(O)C12C[C@@H]3[C@H](C)CC[C@H]3C3(C=O)CC1C=C(C(C)C)[C@@]23C(=O)O` (stereo partly drawn) the MIC (Nakaseomyces glabratus) was 64 µg/mL (≈ 159 µM), the MIC (Candida albicans) was 16 µg/mL (≈ 39.7 µM) and the CC50 (HEp-2 [3]) was “inactive”.
With `CC(C)CCC#CC(O)C12C[C@@H]3[C@H](C)CC[C@H]3C3(C=O)CC1C=C(C(C)C)[C@@]23C(=O)O` (stereo partly drawn) the MIC (Nakaseomyces glabratus) was 8 µg/mL (≈ 18.8 µM), the MIC (Candida albicans) was 1 µg/mL (≈ 2.34 µM) and the CC50 (HEp-2 [1]) was 15.8 µg/mL (≈ 37 µM). It also gave a Therapeutic index [2] of 15.8.
`CC(C)C1=CC2CC3(C=O)[C@@H]4CC[C@@H](C)[C@H]4CC2(C(=O)C#CCC2CCCC2)[C@]13C(=O)O` showed an MIC (Nakaseomyces glabratus) of 0.125 µg/mL (≈ 0.286 µM), an MIC (Candida albicans) of less than 0.06 µg/mL and a CC50 (HEp-2 [1]) of 0.9 µg/mL (≈ 2.06 µM). The Therapeutic index [2] was greater than 15.
Compound `CC(C)C1=CC2CC3(C=O)[C@@H]4CC[C@@H](C)[C@H]4CC2(C(O)CC2CCCCC2)[C@]13C(=O)O` (stereo partly drawn) has an MIC (Nakaseomyces glabratus) of 8 µg/mL (≈ 18.7 µM), an MIC (Candida albicans) of 2 µg/mL (≈ 4.67 µM) and a CC50 (HEp-2 [1]) of 3.1 µg/mL (≈ 7.23 µM). For the same compound, the Therapeutic index [2] was 1.6.
With `CC(C)C1=CC2CC3(C=O)[C@@H]4CC[C@@H](C)[C@H]4CC2(C(=O)C#CCC2CCCCC2)[C@]13C(=O)O` the MIC (Nakaseomyces glabratus) was 0.5 µg/mL (≈ 1.11 µM), the MIC (Candida albicans) was less than 0.06 µg/mL and the CC50 (HEp-2 [1]) was 1.4 µg/mL (≈ 3.11 µM). It also gave a Therapeutic index [2] greater than 23.3.
